Assay results published in PubChem BioAssay (NCI).
Where “and” joins values, the source holds several entries; their conditions need not be identical. Equal values may be shown once.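 48-hour exposure; five concentrations; linearly interpolated endpoints. The concentration for 50% growth inhibition is given as GI50. TGI: concentration producing complete growth inhibition.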

Key:
Assay in all cases: growth of human tumour cells (NCI), 48 h
[1] = test system: A498 renal
[2] = test system: LOX IMVI melanoma
[3] = test system: A549 NSCLC
[4] = test system: U251 CNS
[5] = test system: RPMI-8226 leukemia
[6] = test system: 786-0 renal
[7] = test system: MOLT-4 leukemia
[8] = test system: EKVX NSCLC
[9] = test system: SF-539 CNS
[10] = test system: DU-145 prostate
[11] = test system: HOP-92 NSCLC
[12] = test system: K-562 leukemia
[13] = test system: SNB-19 CNS
[14] = test system: M14 melanoma
[15] = test system: SR leukemia
[16] = test system: NCI-H226 lung
[17] = test system: SN12C renal
[18] = test system: SK-MEL-28 melanoma
[19] = test system: HS 578T breast
[20] = test system: UACC-257 melanoma
[21] = test system: SF-268 CNS
[22] = test system: SK-OV-3 ovarian
[23] = test system: MCF7 breast
[24] = test system: SK-MEL-2 melanoma
[25] = test system: TK-10 renal
[26] = test system: UACC-62 melanoma
[27] = test system: HCT-15 colon
[28] = test system: ACHN renal
[29] = test system: NCI-H23 lung
[30] = test system: HCC-2998 colon
[31] = test system: HT29 colon
[32] = test system: HOP-62 NSCLC
[33] = test system: COLO 205 colon
[34] = test system: KM12 colon
[35] = test system: PC-3 prostate
[36] = test system: SF-295 CNS
[37] = test system: OVCAR-4 ovarian
[38] = test system: HCT-116 colon
[39] = test system: MDA-MB-231 breast
[40] = test system: OVCAR-3 ovarian
[41] = test system: MALME-3M melanoma
[42] = test system: MDA-MB-468 breast
[43] = test system: SK-MEL-5 melanoma
[44] = test system: RXF 393 renal
[45] = test system: OVCAR-8 ovarian
[46] = test system: T-47D breast
[47] = test system: SW-620 colon
[48] = test system: MDA-MB-435
[49] = test system: OVCAR-5 ovarian
[50] = test system: CAKI-1 renal
[51] = test system: NCI-H522 lung
[52] = test system: BT-549 breast
[53] = test system: NCI-H460 lung
[54] = test system: HL-60(TB) leukemia
[55] = test system: SNB-75 CNS

COc1cc(C2CC(c3ccc(Cl)cc3)=Nc3c(N)nc(N)nc3N2)ccc1Oc1nc(Nc2ccc(F)cc2)nc(N(C)C)n1 (centres undefined)
GI50 [1]: > 100 µM | TGI [1]: > 100 µM | GI50 [2]: 47.8 µM | TGI [2]: > 100 µM | GI50 [3]: > 100 µM | TGI [3]: > 100 µM | GI50 [4]: > 100 µM | TGI [4]: > 100 µM | GI50 [5]: 26.4 µM | TGI [5]: > 100 µM | GI50 [6]: > 100 µM | TGI [6]: > 100 µM | GI50 [7]: 8.54 µM | TGI [7]: > 100 µM | GI50 [8]: > 100 µM | TGI [8]: > 100 µM | GI50 [9]: > 100 µM | TGI [9]: > 100 µM | GI50 [10]: > 100 µM | TGI [10]: > 100 µM | GI50 [11]: 3 µM | TGI [11]: > 100 µM | GI50 [12]: 4.5 µM | TGI [12]: > 100 µM | GI50 [13]: > 100 µM | TGI [13]: > 100 µM | GI50 [14]: > 100 µM | TGI [14]: > 100 µM | GI50 [15]: 3.41 µM | TGI [15]: > 100 µM | GI50 [16]: > 100 µM | TGI [16]: > 100 µM | GI50 [17]: > 100 µM | TGI [17]: > 100 µM | GI50 [18]: > 100 µM | TGI [18]: > 100 µM | GI50 [19]: 84.8 µM | TGI [19]: > 100 µM | GI50 [20]: > 100 µM | TGI [20]: > 100 µM | GI50 [21]: > 100 µM | TGI [21]: > 100 µM | GI50 [22]: > 100 µM | TGI [22]: > 100 µM | GI50 [23]: 9.91 µM | TGI [23]: > 100 µM | GI50 [24]: > 100 µM | TGI [24]: > 100 µM | GI50 [25]: > 100 µM | TGI [25]: > 100 µM | GI50 [26]: > 100 µM | TGI [26]: > 100 µM | GI50 [27]: 76.6 µM | TGI [27]: > 100 µM | GI50 [28]: > 100 µM | TGI [28]: > 100 µM | GI50 [29]: > 100 µM | TGI [29]: > 100 µM | GI50 [30]: 45.3 µM | TGI [30]: > 100 µM | GI50 [31]: 29.4 µM | TGI [31]: > 100 µM | GI50 [32]: > 100 µM | TGI [32]: > 100 µM | GI50 [33]: > 100 µM | TGI [33]: > 100 µM | GI50 [34]: 40.1 µM | TGI [34]: > 100 µM | GI50 [35]: 6.16 µM | TGI [35]: > 100 µM | GI50 [36]: > 100 µM | TGI [36]: > 100 µM | GI50 [37]: 18.9 µM | TGI [37]: > 100 µM | GI50 [38]: 12.5 µM | TGI [38]: > 100 µM | GI50 [39]: 6.73 µM | TGI [39]: > 100 µM | GI50 [40]: > 100 µM | TGI [40]: > 100 µM | GI50 [41]: > 100 µM | TGI [41]: > 100 µM | GI50 [42]: 17.8 µM | TGI [42]: > 100 µM | GI50 [43]: 17.2 µM | TGI [43]: 52 µM | GI50 [44]: 2.46 µM | TGI [44]: > 100 µM | GI50 [45]: > 100 µM | TGI [45]: > 100 µM | GI50 [46]: > 100 µM | TGI [46]: > 100 µM | GI50 [47]: > 100 µM | TGI [47]: > 100 µM | GI50 [48]: > 100 µM | TGI [48]: > 100 µM | GI50 [49]: > 100 µM | TGI [49]: > 100 µM | GI50 [50]: 3.38 µM | TGI [50]: > 100 µM | GI50 [51]: > 100 µM | TGI [51]: > 100 µM | GI50 [52]: 35.5 µM | TGI [52]: > 100 µM | GI50 [53]: 42.3 µM | TGI [53]: > 100 µM | GI50 [54]: 44.7 µM | TGI [54]: > 100 µM | GI50 [55]: 3.24 µM | TGI [55]: > 100 µM

CN1CCN(c2cc(C(=O)Nc3cc4cc(-c5cnn(C)c5)ccc4cn3)ccn2)CC1
GI50 [42]: 0.0348 µM | TGI [42]: 0.286 µM

N#CSc1c[nH]c2ccc(/C=C/C(=O)/C=C(/C=C/c3ccc4[nH]cc(SC#N)c4c3)OB(F)F)cc12
GI50 [42]: 0.91 µM | TGI [42]: 4.09 µM

O=c1c(O)cccc2cc(O)c(O)c(O)c12
GI50 [42]: 47.6 µM | TGI [42]: > 100 µM

CC(=O)N1c2ccccc2NC2=C(C(=O)N(Cc3ccccc3)C2(C)C)C1c1ccco1 (centres undefined)
GI50 [42]: 0.0897 µM | TGI [42]: > 25 µM

CCC(=C(c1ccc(OCCN(C)C)cc1)c1ccc(OCCN(C)C)cc1)c1ccc(Cl)cc1
GI50 [42]: 2.95 µM | TGI [42]: 6.7 µM

COC1=CC(=O)C(OC)=C(OC)C1=O
GI50 [42]: 1.61 µM | TGI [42]: 3.16 µM

O=C(O)CCC/C=C\C[C@H]1C=CC(=O)/C1=C/C[C@@H](O)CCc1cccc(C(F)(F)F)c1
GI50 [42]: 1.24 µM | TGI [42]: 3.27 µM

N#CC(C#N)N=Nc1ccc(Br)cc1
GI50 [42]: 1.01 µM | TGI [42]: 5.1 µM

CN1CCN(c2ccc(Nc3nc(N)c(C(=O)c4ccc5c(c4)OCCO5)s3)cc2)CC1
GI50 [42]: 5.56 µM | TGI [42]: > 17.6 µM

Nc1ncnc2c1c(-c1cccc(OCc3ccccc3)c1)cn2C1CC(CN2CCC2)C1 (centres undefined)
GI50 [42]: 1.96 µM and 2.14 µM | TGI [42]: 5.98 µM and 8.79 µM

CCCCCCCCCCCCCCCC[N+](C)(CCO)Cc1cnc[nH]1 (centres undefined)
GI50 [42]: 0.396 µM | TGI [42]: 10.1 µM

Cc1cccc(/C=C/C(=O)Nc2ncc(Cc3cccc(C)c3)s2)c1
GI50 [42]: 3.77 µM | TGI [42]: > 100 µM
